The results in this text go back to patent publication US20250179088A9 (ZYMEWORKS BC INC., priority 2020, published 2025).

For one assay, the system named is PBMCs. Nature of the assay: PBMC assay, IL-6 release (HTRF). It is filed as cell-based. Conditions: PBMCs from healthy donors, overnight, IL-6 induction by HTRF, average of quadruplicate. How it is done:
Whole peripheral blood was obtained from healthy donors. PBMCs were isolated from peripheral blood by density gradient centrifugation. […] The plasma layer containing PBMCs was poured into a new tube and washed twice. Isolated PBMCs were either used fresh or thawed from previously frozen. 1×10^5 PBMCs were cultured with titrating concentrations of compounds of Formula I overnight followed by assaying for cytokines by homogeneous time resolved fluorescence (HTRF).

The target of another assay is T1, TLR7 (Homo sapiens, UniProt Q9NYK1).
T1 sequence (Q9NYK1 27-1049): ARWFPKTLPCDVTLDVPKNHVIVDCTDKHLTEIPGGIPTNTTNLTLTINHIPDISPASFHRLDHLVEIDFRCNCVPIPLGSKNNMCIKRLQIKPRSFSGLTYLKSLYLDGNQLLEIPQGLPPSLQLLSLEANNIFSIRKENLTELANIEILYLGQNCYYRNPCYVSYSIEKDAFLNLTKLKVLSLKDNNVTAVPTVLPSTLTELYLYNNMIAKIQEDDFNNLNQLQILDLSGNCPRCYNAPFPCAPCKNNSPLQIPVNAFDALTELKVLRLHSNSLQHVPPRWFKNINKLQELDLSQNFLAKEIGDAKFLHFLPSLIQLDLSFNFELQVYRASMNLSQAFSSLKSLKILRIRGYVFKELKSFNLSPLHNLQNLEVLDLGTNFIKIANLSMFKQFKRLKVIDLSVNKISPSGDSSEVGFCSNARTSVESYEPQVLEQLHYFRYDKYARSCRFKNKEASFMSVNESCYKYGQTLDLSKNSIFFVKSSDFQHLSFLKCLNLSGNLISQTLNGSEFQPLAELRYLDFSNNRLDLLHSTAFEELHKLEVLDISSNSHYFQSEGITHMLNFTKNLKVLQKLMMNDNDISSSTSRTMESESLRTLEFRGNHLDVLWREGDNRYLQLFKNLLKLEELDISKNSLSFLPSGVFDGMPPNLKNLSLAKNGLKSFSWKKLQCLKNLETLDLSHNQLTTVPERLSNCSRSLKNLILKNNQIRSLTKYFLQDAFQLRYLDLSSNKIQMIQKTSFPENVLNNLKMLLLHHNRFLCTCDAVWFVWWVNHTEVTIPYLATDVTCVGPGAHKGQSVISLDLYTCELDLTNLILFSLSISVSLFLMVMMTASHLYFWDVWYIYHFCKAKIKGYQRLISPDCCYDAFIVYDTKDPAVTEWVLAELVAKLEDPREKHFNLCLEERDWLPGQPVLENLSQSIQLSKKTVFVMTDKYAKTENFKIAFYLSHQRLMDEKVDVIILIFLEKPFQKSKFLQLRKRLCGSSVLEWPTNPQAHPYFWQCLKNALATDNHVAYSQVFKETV
Nature of the assay: Reporter gene assay, HEK-Blue TLR7 reporter cells (SEAP). On the technique in general: A reporter such as luciferase makes a cellular process visible.

The next assay has as its target T2, TLR8 (Homo sapiens, UniProt Q9NR97).
T2 sequence (Q9NR97 27-1041): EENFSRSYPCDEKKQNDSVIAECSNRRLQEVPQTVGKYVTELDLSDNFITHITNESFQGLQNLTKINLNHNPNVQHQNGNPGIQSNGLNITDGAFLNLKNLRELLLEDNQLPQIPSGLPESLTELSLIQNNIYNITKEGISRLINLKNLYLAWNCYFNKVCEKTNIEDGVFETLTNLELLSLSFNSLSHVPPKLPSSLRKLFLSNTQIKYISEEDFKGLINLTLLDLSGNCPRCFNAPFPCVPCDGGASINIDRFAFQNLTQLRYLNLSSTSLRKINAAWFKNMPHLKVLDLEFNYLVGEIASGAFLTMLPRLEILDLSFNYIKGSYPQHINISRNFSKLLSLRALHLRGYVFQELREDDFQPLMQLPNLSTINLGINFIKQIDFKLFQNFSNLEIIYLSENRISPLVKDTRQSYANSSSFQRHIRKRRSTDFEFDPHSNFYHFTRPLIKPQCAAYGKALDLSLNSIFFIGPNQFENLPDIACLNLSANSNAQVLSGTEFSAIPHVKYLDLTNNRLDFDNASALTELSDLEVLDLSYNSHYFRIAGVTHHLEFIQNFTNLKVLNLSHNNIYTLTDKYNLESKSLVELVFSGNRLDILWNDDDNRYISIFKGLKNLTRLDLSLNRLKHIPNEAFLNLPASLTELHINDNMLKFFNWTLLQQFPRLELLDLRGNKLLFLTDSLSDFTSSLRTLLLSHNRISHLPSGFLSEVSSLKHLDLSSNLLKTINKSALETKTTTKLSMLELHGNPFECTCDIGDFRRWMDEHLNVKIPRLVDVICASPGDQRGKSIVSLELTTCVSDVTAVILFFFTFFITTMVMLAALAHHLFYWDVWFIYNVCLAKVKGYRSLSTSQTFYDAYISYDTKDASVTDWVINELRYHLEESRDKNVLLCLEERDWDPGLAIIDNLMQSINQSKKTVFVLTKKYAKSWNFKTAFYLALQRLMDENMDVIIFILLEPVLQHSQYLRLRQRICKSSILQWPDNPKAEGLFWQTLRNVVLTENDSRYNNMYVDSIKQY
In words: Reporter gene assay, HEK-Blue TLR8 reporter cells (SEAP).

Bounds are passed on as bounds.

Method for TLR7: (§1) 3×10^4 HEK-Blue™ TLR7 or 3×10^4 TLR8 reporter cells (InvivoGen, San Diego, CA) were treated with titrated (4-fold) amounts of test compound. […] Cells were incubated overnight at 37° C. and 5% CO2, then absorbance (620 and 655 nm) was read on a Synergy™ H1 microplate reader.
Method for TLR8: as §1

Consider `CCCCc1nc2c(N)nc3ccsc3c2n1Cc1cccc(CNCc2ccc(CO)cc2)c1` [Compound 204, (4-(((3-((4-amino-2-butyl-1H-imidazo[4,5-d]thieno[3,2-b]pyridin-1-yl)methyl)benzyl)amino)methyl)phenyl)methanol], for which the EC50 (usually the midpoint of the concentration-response curve) amounted to 200 nM with PBMCs, 68 nM on TLR7 and 310 nM at TLR8.

On to `CCCCc1nc2c(N)nc3ccsc3c2n1Cc1cccc(CNCC(C)(C)O)c1` [Compound 205, 1-((3-((4-amino-2-butyl-1H-imidazo[4,5-d]thieno[3,2-b]pyridin-1-yl)methyl)benzyl)amino)-2-methylpropan-2-ol], for which the EC50 with PBMCs is 160 nM; on TLR7, 110 nM; on TLR8 it was 190 nM.

As to `CCCCc1nc2c(N)nc3ccsc3c2n1Cc1cccc(CNN)c1` [Compound 206, 2-butyl-1-(3-(hydrazineylmethyl)benzyl)-1H-imidazo[4,5-d]thieno[3,2-b]pyridin-4-amine], the concentration giving a half-maximal response (EC50) with PBMCs is greater than 1000 nM; at TLR7 it was 280 nM; at TLR8 it was greater than 1000 nM.

For the compound `CCCCc1nc2c(N)nc3ccsc3c2n1Cc1cccc(CO)c1` [Compound 207, (3-((4-amino-2-butyl-1H-imidazo[4,5-d]thieno[3,2-b]pyridin-1-yl)methyl)phenyl)methanol], the concentration giving a half-maximal response (EC50) in the assay on PBMCs was greater than 1000 nM; at TLR7 it was 480 nM; on TLR8, greater than 1000 nM.

Take `CCCCc1nc2c(N)nc3ccsc3c2n1Cc1cccc(CN2CCNCC2)c1` [Compound 214, 2-butyl-1-(3-(piperazin-1-ylmethyl)benzyl)-1H-imidazo[4,5-d]thieno[3,2-b]pyridin-4-amine]: the EC50 in the assay on PBMCs is 750 nM; on TLR7, 63 nM; on TLR8, greater than 1000 nM.

Turning to `CCCCc1nc2c(N)nc3ccsc3c2n1Cc1ccccc1CNCCCN1CCN(CCCN)CC1` [Compound 215, 1-(2-(((3-(4-(3-aminopropyl)piperazin-1-yl)propyl)amino)methyl)benzyl)-2-butyl-1H-imidazo[4,5-d]thieno[3,2-b]pyridin-4-amine], the concentration giving a half-maximal response (EC50) with PBMCs, on TLR7 and at TLR8 was greater than 1000 nM each time.

As for `CCCCc1nc2c(N)nc3ccsc3c2n1Cc1ccccc1CN` [Compound 216, 1-(2-(aminomethyl)benzyl)-2-butyl-1H-imidazo[4,5-d]thieno[3,2-b]pyridin-4-amine], the EC50 in the assay on PBMCs, on TLR7 and on TLR8 was greater than 1000 nM each time.

In the case of `CCCCc1nc2c(N)nc3ccsc3c2n1Cc1ccccc1CN1CCN(C(=O)OC(C)(C)C)CC1` [Compound 217, tert-butyl 4-(2-((4-amino-2-butyl-1H-imidazo[4,5-d]thieno[3,2-b]pyridin-1-yl)methyl)benzyl)piperazine-1-carboxylate], the EC50 in the assay on PBMCs, at TLR7 and on TLR8 was greater than 1000 nM throughout.

As for `CCCCc1nc2c(N)nc3ccsc3c2n1Cc1ccccc1CN1CCNCC1` [Compound 218, 2-butyl-1-(2-(piperazin-1-ylmethyl)benzyl)-1H-imidazo[4,5-d]thieno[3,2-b]pyridin-4-amine], the concentration giving a half-maximal response (EC50) in the assay on PBMCs, on TLR7 and on TLR8 was greater than 1000 nM each time.

With `CCCCc1nc2c(N)nc3ccsc3c2n1Cc1ccccc1CN1CCC(c2ccncc2)CC1` [Compound 219, 2-butyl-1-(2-((4-(pyridin-4-yl)piperidin-1-yl)methyl)benzyl)-1H-imidazo[4,5-d]thieno[3,2-b]pyridin-4-amine], the EC50 in the assay with PBMCs, at TLR7 and on TLR8 was greater than 1000 nM in each case.

Turning to `CCCCc1nc2c(N)nc3ccsc3c2n1Cc1ccccc1CNCc1cc[nH]c1` [Compound 220, 1-(2-((((1H-pyrrol-3-yl)methyl)amino)methyl)benzyl)-2-butyl-1H-imidazo[4,5-d]thieno [3,2-b]pyridin-4-amine], the EC50 in the assay with PBMCs, on TLR7 and at TLR8 was greater than 1000 nM throughout.

With `CCCCc1nc2c(N)nc3ccsc3c2n1Cc1ccccc1CN(CC)CC` [Compound 221, 2-butyl-1-(2-((diethylamino)methyl)benzyl)-1H-imidazo[4,5-d]thieno[3,2-b]pyridin-4-amine], the EC50 in the assay on PBMCs, on TLR7 and at TLR8 was greater than 1000 nM in each case.

Regarding `CCCCc1nc2c(N)nc3ccsc3c2n1Cc1ccccc1CN1CCN(CCN2CCOCC2)CC1` [Compound 222, 2-butyl-1-(2-((4-(2-morpholinoethyl)piperazin-1-yl)methyl)benzyl)-1H-imidazo[4,5-d]thieno[3,2-b]pyridin-4-amine], the EC50 in the assay with PBMCs, on TLR7 and at TLR8 was greater than 1000 nM in each case.

As to `CCCCc1nc2c(N)nc3ccsc3c2n1Cc1ccccc1CNCCCCCO` [Compound 223], the concentration giving a half-maximal response (EC50) with PBMCs, on TLR7 and on TLR8 was greater than 1000 nM throughout.

`CCCCc1nc2c(N)nc3ccsc3c2n1Cc1ccccc1CNCc1ccc(CO)cc1` [Compound 224, (4-(((2-((4-amino-2-butyl-1H-imidazo[4,5-d]thieno[3,2-b]pyridin-1-yl)methyl)benzyl)amino)methyl)phenyl)methanol]: the EC50 in the assay on PBMCs, at TLR7 and on TLR8 was greater than 1000 nM in each case.

For the compound `CCCCc1nc2c(N)nc3ccsc3c2n1Cc1ccccc1CNCC(C)(C)O` [Compound 225, 1-((2-((4-amino-2-butyl-1H-imidazo[4,5-d]thieno[3,2-b]pyridin-1-yl)methyl)benzyl)amino)-2-methylpropan-2-ol], the EC50 in the assay with PBMCs, at TLR7 and at TLR8 was greater than 1000 nM throughout.

`CCCCc1nc2c(N)nc3ccsc3c2n1Cc1nc(CO)cs1` [Compound 228, (2-((4-amino-2-butyl-1H-imidazo[4,5-d]thieno[3,2-b]pyridin-1-yl)methyl)thiazol-4-yl)methanol]: the EC50 in the assay with PBMCs is greater than 1000 nM; at TLR7, 220 nM; on TLR8 it was greater than 1000 nM.

As to `CCCCc1nc2c(N)nc3ccsc3c2n1Cc1cccc(Cn2ccnc2)c1` [Compound 229, 1-(3-((1H-imidazol-1-yl)methyl)benzyl)-2-butyl-1H-imidazo[4,5-d]thieno[3,2-b]pyridin-4-amine], the concentration giving a half-maximal response (EC50) is greater than 1000 nM in the assay on PBMCs, 420 nM at TLR7 and greater than 1000 nM at TLR8.

As to `CCCCc1nc2c(N)nc3ccsc3c2n1Cc1nc(CNCc2cc[nH]c2)cs1` [Compound 231, 1-((4-((((1H-pyrrol-3-yl)methyl)amino)methyl)thiazol-2-yl)methyl)-2-butyl-1H-imidazo[4,5-d]thieno[3,2-b]pyridin-4-amine], the half-maximal effective concentration (EC50) in the assay on PBMCs was found to be 920 nM; at TLR7 it was 110 nM; at TLR8, 580 nM.
